{"source": "paper PMC5218472", "about": "(PLoS Biology, 2017)", "key": {"[1]": {"biological_target": "T1, recombinant catalytic domain of ADAM17 (Homo sapiens, UniProt P78536)", "T1 construct": "catalytic domain (aa Pro-18 to Val-477) of ADAM17; purchased Enzo Life Sciences GmbH (Lörrach, Germany)", "T1 sequence (P78536 18-477)": "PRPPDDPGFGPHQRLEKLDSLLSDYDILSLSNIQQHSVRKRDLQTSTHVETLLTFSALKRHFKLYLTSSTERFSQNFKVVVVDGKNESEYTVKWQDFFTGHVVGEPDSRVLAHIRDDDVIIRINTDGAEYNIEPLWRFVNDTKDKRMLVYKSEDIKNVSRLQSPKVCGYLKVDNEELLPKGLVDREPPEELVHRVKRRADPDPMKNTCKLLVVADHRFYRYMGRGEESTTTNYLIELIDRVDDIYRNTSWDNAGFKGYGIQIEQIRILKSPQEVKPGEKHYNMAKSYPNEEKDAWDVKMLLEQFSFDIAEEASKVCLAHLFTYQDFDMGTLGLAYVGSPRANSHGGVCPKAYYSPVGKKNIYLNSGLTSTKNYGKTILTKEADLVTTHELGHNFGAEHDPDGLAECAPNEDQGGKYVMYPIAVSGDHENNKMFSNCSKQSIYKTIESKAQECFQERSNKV", "experiment": "In vitro cleavage assay of IL-6R (glyco)peptides with recombinant ADAM17", "details": "50 μM peptide, 25 mM Hepes pH 9.0, 16 h, 37°C, RP chromatography", "method": "(§1) Fig 7 The N- and O-glycosylated sequon adjacent to the cleavage site is of minor importance for IL-6R cleavage. (A) Amino-acid sequence of the two unglycosylated peptides 1(QD) and 2(QA). Peptides were incubated either with or without recombinant ADAM17 for 16 h at 37°C, and the amount of cleaved peptide was analyzed by reversed-phase (RP) chromatography. (B) Amino-acid sequence of the two glycopeptides 3(QD) and 4(QA), which have a GlcNAc attached to the amino-acid residue corresponding to Asn-350 of the IL-6R. Cleavage was determined as described in panel (A). (C) Amino-acid sequence of the two glycopeptides 5(QD) and 6(QA), which have a biantennary N-glycan attached to the amino-acid residue corresponding to Asn-350 of the IL-6R. Cleavage was determined as described in panel (A). (D) Amino-acid sequence of the two glycopeptides 7(QD) and 8(QA), which have a GalNAc attached to the amino-acid residue corresponding toThr-352 of the IL-6R. Cleavage was determined as described in panel (A). (E) Amino-acid sequence of the two glycopeptides 9(QD) and 10(QA), which have a biantennary N-glycan attached to the amino-acid residue corresponding to Asn-350 and a GalNAc attached to the amino-acid residue corresponding toThr-352 of the IL-6R. Cleavage was determined as described in panel (A). All data shown are the mean ± SD from three independent experiments (*p < 0.05, **p < 0.01, ***p < 0.001, compared to the untreated peptide; ^§p < 0.05, compared to the cleaved nonglycosylated peptide).\n(§2) Two 1.5 ml reaction tubes were filled with 50 μl peptide (50 μM) solved in 25 mM Hepes (pH 9.0), and 0.5 μl of the recombinant catalytic domain of ADAM17 was added to one of the reaction tubes, whereas the other sample remained untreated. All samples were incubated for 16 h at 37°C. Afterwards, 1,150 μl 0.1% TFA was added to each sample, and the peptides were separated on a reverse phase chromatography column (Multo High Bio-200-C18) from Chromatographie Service (Langerwehe, Germany) using a linear gradient elution with a binary solvent system and a flow rate of 1 ml/min. Solvent A consisted of 0.1% TFA, and solvent B consisted of 100% ACN. After peak integration, peak areas for cleaved and noncleaved peptides were determined."}, "[2]": {"experiment": "In vitro cleavage assay of IL-6R (glyco)peptides with recombinant ADAM17", "details": "human, isolated enzyme; 50 μM peptide, 25 mM Hepes pH 9.0, recombinant catalytic domain of ADAM17, 16 h, 37°C, reverse phase C18 chromatography, peak areas; mean of 3 independent experiments; read-out: intact peptide after incubation with ADAM17 (untreated peptide = 100), mean", "method": "as §1, §2"}, "[3]": {"test_system": "ADAM10 / ADAM17", "experiment": "PMA-induced shedding of wild-type IL-6R in HEK293 cells after pretreatment with inhibitors GI or GW, ELISA (Fig 9B)", "assay_type": "cell-based, human", "details": "HEK293, wild-type IL-6R; PMA stimulation, GI or GW given as pretreatment before PMA; mean of n = 3", "method": "(§3) Fig 9 An IL-6R devoid of all N-glycans is defective in ADAM17-mediated proteolysis. (A) PMA-mediated ectodomain shedding of IL-6R-5N with a stably transduced Ba/F3-gp130 cell line. Data shown are the mean ± SD from three independent experiments compared to wild-type IL-6R. (B) HEK293 cells were transiently transfected with a cDNA encoding wild-type IL-6R. Cells were pretreated with the ADAM10-specific inhibitor GI or the combined ADAM10/ADAM17-specific inhibitor GW for 30 min and then stimulated with 100 nM PMA for 2 h as indicated. The amount of sIL-6R in the cell supernatant was determined by ELISA. One out of three experiments with similar outcomes is shown (mean ± SD, n = 3). (C) The experiment was performed as described under (B), but sIL-6R was precipitated from cell supernatant and analyzed by western blot. Furthermore, the cells were lysed, and IL-6R expression in the lysates was also determined by western blot. β-actin served as loading control. […] (D, E) The experiment was performed as described in […], but HEK293 cells were transiently transfected with a cDNA encoding IL-6R-5N. nd, not detected. (F) Cell-surface expression of the IL-6R-5N variant on transiently transfected HEK293 cells analyzed via flow cytometry (black histogram). […] The expression of all proteins (input) and the interaction of the IL-6R variants with MPD17-CANDIS were analyzed via western blot. […]"}, "[4]": {"test_system": "ADAM10 / ADAM17", "experiment": "PMA-induced shedding of IL-6R-5N in HEK293 cells after pretreatment with inhibitors GI or GW, ELISA (Fig 9D)", "assay_type": "cell-based, human", "details": "HEK293, IL-6R-5N; PMA stimulation, GI or GW given as pretreatment before PMA; mean of n = 3", "method": "as §3"}, "[5]": {"test_system": "Ba/F3-gp130 cells", "experiment": "Proliferation of Ba/F3-gp130 cells with 10 ng/ml IL-6 plus recombinant sIL-6R or ds-sIL-6R (IL-6 trans-signaling), Cell Titer Blue", "assay_type": "cell-based", "details": "0-100 ng/ml with 10 ng/ml IL-6, 48 h", "from_the_text": "Fig 1 The majority of sIL-6R in human serum is not generated by alternative mRNA splicing. (A) Multiple sequence alignment of amino acids Met-310 to Ala-370 of the full-length human IL-6R with the sIL-6R (Met-310 to Gln-357) and amino acids Met-310 to Leu-365 of the differentially spliced sIL-6R (ds-sIL-6R). The ten unique C-terminal amino-acid residues of the […], which represent the epitope against which the antibody ds6R was raised, are colored in green. (B, C) Proliferation assay of Ba/F3-gp130 cells in response to 10 ng/ml IL-6 and increasing amounts (0–100 ng/ml) of either (B) recombinant sIL-6R or (C) recombinant ds-sIL-6R. Cell viability was assessed after 48 h. […]\nProliferation of the different Ba/F3-gp130-IL-6R cell lines in response to IL-6 and Hyper-IL-6 and of Ba/F3-gp130 cells in response to IL-6 and the two different recombinant sIL-6R variants was determined using the Cell Titer Blue Cell viability assay reagent (Promega, Karlsruhe, Germany), following the manufacturer’s protocol as described previously. Values were measured in triplicates per experiment, and relative light units (RLU) obtained after 60 min were normalized by subtraction of control values obtained after 0 min. The maximum proliferation was set to 100%, and all other values were calculated accordingly."}}, "note": "Residues, ends and D or L forms follow the SMILES beside them. *: point of attachment. X1 = CC(=O)N[C@@H]1[C@@H](O)[C@H](O[C@@H]2O[C@H](CO)[C@@H](O[C@@H]3O[C@H](CO[C@H]4O[C@H](CO)[C@@H](O)[C@H](O)[C@@H]4O[C@@H]4O[C@H](CO)[C@@H](O[C@@H]5O[C@H](CO)[C@H](O)[C@H](O)[C@H]5O)[C@H](O)[C@H]4NC(C)=O)[C@@H](O)[C@H](O[C@H]4O[C@H](CO)[C@@H](O)[C@H](O)[C@@H]4O[C@@H]4O[C@H](CO)[C@@H](O[C@@H]5O[C@H](CO)[C@H](O)[C@H](O)[C@H]5O)[C@H](O)[C@H]4NC(C)=O)[C@@H]3O)[C@H](O)[C@H]2NC(C)=O)[C@@H](CO)O[C@H]1N*; αGalNAc = CC(=O)N[C@@H]1[C@@H](O)[C@@H](O)[C@@H](CO)O[C@@H]1*", "data": [{"molecule": "CC[C@H](C)[C@H](NC(=O)[C@@H](N)CC(N)=O)C(=O)N[C@@H](CC(C)C)C(=O)N[C@@H](Cc1ccccc1)C(=O)N[C@@H](CCCNC(=N)N)C(=O)N[C@@H](CC(=O)O)C(=O)N[C@@H](CO)C(=O)N[C@@H](C)C(=O)N[C@@H](CC(=O)N[C@@H]1O[C@H](CO)[C@@H](O[C@@H]2O[C@H](CO)[C@@H](O[C@@H]3O[C@H](CO[C@H]4O[C@H](CO)[C@@H](O)[C@H](O)[C@@H]4O[C@@H]4O[C@H](CO)[C@@H](O[C@@H]5O[C@H](CO)[C@H](O)[C@H](O)[C@H]5O)[C@H](O)[C@H]4NC(C)=O)[C@@H](O)[C@H](O[C@H]4O[C@H](CO)[C@@H](O)[C@H](O)[C@@H]4O[C@@H]4O[C@H](CO)[C@@H](O[C@@H]5O[C@H](CO)[C@H](O)[C@H](O)[C@H]5O)[C@H](O)[C@H]4NC(C)=O)[C@@H]3O)[C@H](O)[C@H]2NC(C)=O)[C@H](O)[C@H]1NC(C)=O)C(=O)N[C@@H](C)C(=O)N[C@H](C(=O)N[C@@H](CO)C(=O)N[C@@H](CC(C)C)C(=O)N1CCC[C@H]1C(=O)N[C@H](C(=O)N[C@@H](CCC(N)=O)C(=O)N[C@@H](C)C(=O)N[C@@H](CO)C(=O)N[C@@H](CO)C(=O)N[C@@H](CO)C(=O)N[C@H](C(=O)N1CCC[C@H]1C(=O)N[C@@H](CC(C)C)C(=O)N1CCC[C@H]1C(=O)O)C(C)C)C(C)C)[C@@H](C)O", "note": "[6(QA)] (H-NILFRDSAD(X1)ATSLPVQASSSVPLP-OH; N-terminus and C-terminus assumed)", "values": [{"measurement": "cleavage by recombinant ADAM17, in words", "setting": "[1]", "value": "did not alter processing"}, {"measurement": "remaining at 16 h", "setting": "[2]", "value": 2.44, "unit": "%"}]}, {"molecule": "CC[C@H](C)[C@H](NC(=O)[C@@H](N)CC(N)=O)C(=O)N[C@@H](CC(C)C)C(=O)N[C@@H](Cc1ccccc1)C(=O)N[C@@H](CCCNC(=N)N)C(=O)N[C@@H](CC(=O)O)C(=O)N[C@@H](CO)C(=O)N[C@@H](C)C(=O)N[C@@H](CC(=O)N[C@@H]1O[C@H](CO)[C@@H](O[C@@H]2O[C@H](CO)[C@@H](O[C@@H]3O[C@H](CO[C@H]4O[C@H](CO)[C@@H](O)[C@H](O)[C@@H]4O[C@@H]4O[C@H](CO)[C@@H](O[C@@H]5O[C@H](CO)[C@H](O)[C@H](O)[C@H]5O)[C@H](O)[C@H]4NC(C)=O)[C@@H](O)[C@H](O[C@H]4O[C@H](CO)[C@@H](O)[C@H](O)[C@@H]4O[C@@H]4O[C@H](CO)[C@@H](O[C@@H]5O[C@H](CO)[C@H](O)[C@H](O)[C@H]5O)[C@H](O)[C@H]4NC(C)=O)[C@@H]3O)[C@H](O)[C@H]2NC(C)=O)[C@H](O)[C@H]1NC(C)=O)C(=O)N[C@@H](C)C(=O)N[C@H](C(=O)N[C@@H](CO)C(=O)N[C@@H](CC(C)C)C(=O)N1CCC[C@H]1C(=O)N[C@H](C(=O)N[C@@H](CCC(N)=O)C(=O)N[C@@H](CC(=O)O)C(=O)N[C@@H](CO)C(=O)N[C@@H](CO)C(=O)N[C@@H](CO)C(=O)N[C@H](C(=O)N1CCC[C@H]1C(=O)N[C@@H](CC(C)C)C(=O)N1CCC[C@H]1C(=O)O)C(C)C)C(C)C)[C@@H](C)O[C@H]1O[C@H](CO)[C@H](O)[C@H](O)[C@H]1NC(C)=O", "note": "[9(QD)] (H-NILFRDSAD(X1)AT(αGalNAc)SLPVQDSSSVPLP-OH; N-terminus and C-terminus assumed)", "values": [{"measurement": "cleavage by recombinant ADAM17, in words", "setting": "[1]", "value": "again blocked"}, {"measurement": "remaining at 16 h", "setting": "[2]", "value": 95.6, "unit": "%"}]}, {"molecule": "CNC(=O)[C@@H](NC(=O)[C@H](CCCc1ccccc1)[C@H](C)N(O)C=O)C(C)(C)C", "note": "[GI]", "values": [{"measurement": "sIL-6R in supernatant (ELISA), Figure 9B, mean", "setting": "[3]", "value": 48715.8}, {"measurement": "sIL-6R in supernatant (ELISA), Figure 9D, mean", "setting": "[4]", "value": 0}]}, {"molecule": "CCCCCCCCCCCCCC(=O)O[C@@H]1[C@@H](C)[C@@]2(O)[C@@H](C=C(CO)C[C@]3(O)C(=O)C(C)=C[C@@H]23)[C@@H]2C(C)(C)[C@]12OC(C)=O", "note": "[PMA, phorbol-12-myristate-13-acetate]", "values": [{"measurement": "sIL-6R in supernatant (ELISA), Figure 9B, mean", "setting": "[3]", "value": 71566.4}, {"measurement": "sIL-6R in supernatant (ELISA), Figure 9D, mean", "setting": "[4]", "value": 0}]}, {"molecule": "sIL-6R: recombinant soluble IL-6 receptor expressed in HEK293-EBNA cells (protein, UniProt P08887 20-365, looked up, extracellular domain recombinant, recombinant soluble IL-6 receptor expressed in HEK293-EBNA cells) extracellular domain: LAPRRCPAQEVARGVLTSLPGDSVTLTCPGVEPEDNATVHWVLRKPAAGSHPSRWAGMGRRLLLRSVQLHDSGNYSCYRAGRPAGTVHLLVDVPPEEPQLSCFRKSPLSNVVCEWGPRSTPSLTTKAVLLVRKFQNSPAEDFQEPCQYSQESQKFSCQLAVPEGDSSFYIVSMCVASSVGSKFSKTQTFQGCGILQPDPPANITVTAVARNPRWLSVTWQDPHSWNSSFYRLRFELRYRAERSKTFTTWMVKDLQHHCVIHDAWSGLRHVVQLRAQEEFGQGEWSEWSPEAMGTPWTESRSPPAENEVSTPMQALTTNKDDDNILFRDSANATSLPVQDSSSVPLP", "values": [{"measurement": "IL-6 trans-signaling activity, in words", "setting": "[5]", "value": "biologically active"}]}]}
